Among the test systems are TK-10 renal; HOP-62 NSCLC; HT29 colon; DU-145 prostate; MDA-MB-435; MOLT-4 leukemia; IGROV1 ovarian; OVCAR-4 ovarian; NCI-H226 lung; NCI/ADR-RES ovarian; U251 CNS; SF-539 CNS; OVCAR-3 ovarian; OVCAR-5 ovarian; SR leukemia; SK-OV-3 ovarian; SF-268 CNS; SK-MEL-28 melanoma; RXF 393 renal; A498 renal.
Common to all, as to assay: growth of human tumour cells (NCI), 48 h

Structures are written as SMILES.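 Exposure lasted 48 hours, with cells grown in 96-well plates and compounds tested at five concentrations. TGI: concentration producing complete growth inhibition.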 Some results are limits rather than exact numbers.

Regarding `O=c1c2cc(S(=O)(=O)Nc3ccc(Cl)cc3Cl)ccc2ncn1NS(=O)(=O)c1cccc2ccccc12`, the TGI in the assay with TK-10 renal was above 100 µM; in the assay with HOP-62 NSCLC, above 100 µM; in the assay on HT29 colon it was above 100 µM; in the assay with DU-145 prostate, above 100 µM; with MDA-MB-435 it was above 100 µM; in the assay with MOLT-4 leukemia, 85.5 µM. Moreover, the TGI in the assay on IGROV1 ovarian, in the assay with OVCAR-4 ovarian, in the assay with NCI-H226 lung, in the assay with NCI/ADR-RES ovarian, in the assay on U251 CNS and in the assay on SF-539 CNS was above 100 µM throughout. Also, the TGI in the assay on OVCAR-3 ovarian is above 100 µM; in the assay with OVCAR-5 ovarian, above 100 µM; in the assay with SR leukemia it was 70.6 µM; in the assay with SK-OV-3 ovarian, above 100 µM; with SF-268 CNS, above 100 µM; in the assay on SK-MEL-28 melanoma, above 100 µM.
In the case of `C=C1CC(C)(COc2ccc3c(C)cc(=O)oc3c2)OC1=O` (configuration not stated), the TGI in the assay with TK-10 renal came out at 4.06 µM; in the assay on HOP-62 NSCLC, 28.4 µM; with HT29 colon, 4.5 µM; in the assay with DU-145 prostate, 8.96 µM; in the assay with MDA-MB-435 it was 8.92 µM; in the assay with MOLT-4 leukemia, 4.2 µM. In addition, the TGI in the assay with IGROV1 ovarian stood at 8.98 µM; with OVCAR-4 ovarian, 9.06 µM; in the assay with NCI-H226 lung, 26.2 µM; in the assay on NCI/ADR-RES ovarian, 17.6 µM; in the assay on U251 CNS, 25.4 µM; with SF-539 CNS, 4.59 µM. Further, the TGI in the assay on OVCAR-3 ovarian came to 11 µM; in the assay on OVCAR-5 ovarian, 16.5 µM; in the assay on SR leukemia it was 4.33 µM; in the assay with SK-OV-3 ovarian it was 15.1 µM; in the assay with SF-268 CNS, 20.2 µM; in the assay with SK-MEL-28 melanoma, 9.02 µM.
With `COc1c(Br)cc(/C=C(\C#N)c2ccccn2)cc1Br`, the TGI in the assay with TK-10 renal was above 100 µM; in the assay on HOP-62 NSCLC it was 89.1 µM; in the assay with HT29 colon, above 100 µM; in the assay with DU-145 prostate it was above 100 µM; in the assay on MOLT-4 leukemia, above 100 µM; with IGROV1 ovarian it was above 100 µM. For the same compound, the TGI is above 100 µM with NCI-H226 lung; above 100 µM in the assay on NCI/ADR-RES ovarian; above 100 µM with U251 CNS; above 100 µM with SF-539 CNS; above 100 µM in the assay on OVCAR-3 ovarian; 75.1 µM with RXF 393 renal. In addition, the TGI with OVCAR-5 ovarian was above 100 µM; with SR leukemia, above 100 µM; in the assay on SK-OV-3 ovarian, above 100 µM; with A498 renal, 9.57 µM; in the assay on SF-268 CNS, above 100 µM; with SK-MEL-28 melanoma, above 100 µM.
With `C#CC(O)/C=C/C(O)CCCC(O)CC#CC(O)C#CC(O)CCCC(O)/C=C/CCCCCC(=O)CCCCCCCCCCCCCC(O)C(O)C#CC(=O)O` (configuration not stated), the TGI in the assay on TK-10 renal is above 50 µM; in the assay with HOP-62 NSCLC, above 50 µM; with HT29 colon, above 50 µM; in the assay with DU-145 prostate, above 50 µM; in the assay on MDA-MB-435, above 50 µM; in the assay with MOLT-4 leukemia, 26.6 µM. Further, the TGI with IGROV1 ovarian was 36.6 µM; in the assay on OVCAR-4 ovarian, 17.9 µM; in the assay with NCI-H226 lung, above 50 µM; in the assay with NCI/ADR-RES ovarian, above 50 µM; in the assay on U251 CNS it was above 50 µM; with OVCAR-5 ovarian, above 50 µM. Also, the TGI in the assay with SR leukemia was 26.1 µM; in the assay on SK-OV-3 ovarian it was above 50 µM; in the assay with A498 renal, above 50 µM; in the assay on SF-268 CNS, above 50 µM; in the assay with SK-MEL-28 melanoma, 25 µM.
Turning to `Cc1ccc(/C=C2\NC(=S)N(CN3CCCCC3)C2=O)cc1`, the TGI in the assay with TK-10 renal is above 100 µM; with HOP-62 NSCLC it was above 100 µM; in the assay on HT29 colon it was 72.7 µM; in the assay on DU-145 prostate, above 100 µM; in the assay with MDA-MB-435, above 100 µM; in the assay on MOLT-4 leukemia, above 100 µM. Moreover, the TGI in the assay with IGROV1 ovarian, with OVCAR-4 ovarian, in the assay with NCI-H226 lung, in the assay with NCI/ADR-RES ovarian, in the assay with U251 CNS and with OVCAR-3 ovarian was above 100 µM each time. Also, the TGI with OVCAR-5 ovarian, in the assay with SR leukemia, in the assay with SK-OV-3 ovarian, with A498 renal, with SF-268 CNS and in the assay with SK-MEL-28 melanoma was above 100 µM throughout.
On to `CCn1c(O)c(C=Nc2ccccc2)s/c1=N/Nc1nc(-c2ccc(O)c(O)c2)cs1`, for which the TGI with TK-10 renal is above 100 µM; in the assay on HOP-62 NSCLC, above 100 µM; with HT29 colon, above 100 µM; in the assay with DU-145 prostate it was above 100 µM; in the assay with MOLT-4 leukemia it was 92.2 µM; in the assay with IGROV1 ovarian, above 100 µM. Besides, the TGI with OVCAR-4 ovarian is above 100 µM; in the assay on NCI-H226 lung, above 100 µM; with NCI/ADR-RES ovarian, above 100 µM; with U251 CNS it was above 100 µM; in the assay with SF-539 CNS it was 4.76 µM; in the assay with OVCAR-3 ovarian it was 49 µM. The TGI in the assay on RXF 393 renal was above 100 µM; in the assay with OVCAR-5 ovarian it was above 100 µM; with SR leukemia it was 15.9 µM; in the assay on SK-OV-3 ovarian, above 100 µM; in the assay with SF-268 CNS, above 100 µM; in the assay with SK-MEL-28 melanoma, above 100 µM.
`O=C(NCCCNCCCCNCCCNC(=O)c1cc(-c2ccccc2)nc2ccccc12)c1cc(-c2ccccc2)nc2ccccc12`: the TGI with TK-10 renal is 23.8 µM; in the assay with HOP-62 NSCLC, 11.2 µM; in the assay on HT29 colon, 3.57 µM; in the assay with DU-145 prostate, above 59.1 µM; in the assay on MOLT-4 leukemia, 3.73 µM; in the assay on IGROV1 ovarian, 5.35 µM. Also, the TGI in the assay with OVCAR-4 ovarian was above 24.8 µM; in the assay on NCI/ADR-RES ovarian, 74.2 µM; in the assay on SF-539 CNS, 3.62 µM; with OVCAR-3 ovarian it was 15.9 µM; in the assay on RXF 393 renal, 74.2 µM; in the assay on OVCAR-5 ovarian, 5.26 µM. The TGI in the assay with SR leukemia came to 4.95 µM; in the assay on SK-OV-3 ovarian it was 4.85 µM; in the assay with A498 renal it was 47.5 µM; in the assay with SK-MEL-28 melanoma it was 3.3 µM.
Consider `Cn1ccoc1=Nc1ccc(Cl)c(Cl)c1`, for which the TGI in the assay on TK-10 renal, with HOP-62 NSCLC, in the assay on HT29 colon, with DU-145 prostate, with MDA-MB-435 and in the assay with MOLT-4 leukemia was above 10 µM each time. Moreover, the TGI in the assay with IGROV1 ovarian, with OVCAR-4 ovarian, in the assay with NCI-H226 lung, in the assay on NCI/ADR-RES ovarian, in the assay on U251 CNS and with SF-539 CNS was above 10 µM each time. For the same compound, the TGI in the assay on OVCAR-3 ovarian, in the assay with OVCAR-5 ovarian, with SR leukemia, in the assay with SK-OV-3 ovarian, in the assay on A498 renal and with SF-268 CNS was above 10 µM each time. Also, in the assay on SK-MEL-28 melanoma, the TGI is above 10 µM.

The values above are taken from PubChem BioAssay (NCI).
